Patent publication US20230109839A1, “THERAPEUTIC AGENT FOR TAUOPATHIES” (SUMITOMO PHARMA CO., LTD., priority 2020, published 2023)
Entries after “also recorded” stand apart in the source; their conditions may differ. Like-named read-outs stand apart in the source and are kept apart here.

Assays:
APP-Tg mouse = assay: Evaluation of the cognitive function by novel object recognition test (NORT) in APP-Tg mice (Test 3); type: in vivo; parameters: key to Discrimination index: (novel − known search time)/(novel + known search time); conditions: for improvement of cognitive function (NORT), summary of the above results / improvement of cognitive function (NORT): APP-Tg mice; for improvement of cognitive function (NORT), summary of the above results: alone, with Elacridar or with ABT depending on the compound; for improvement of cognitive function (NORT): test compound and ABT (1 mg/g-food) administered with food for 10 days; for Discrimination index: APP-Tg mouse, with ABT 1 mg/g-food
Experimental: Test 3: Evaluation of the Cognitive Function by Novel Object Recognition Test (Hereinafter, Also Referred to as “NORT”)
The present test is for evaluating the improvement of cognitive function with the test compounds. When an APP-Tg mouse which is an AD (Alzheimer's disease) model mouse is evaluated by NORT, the memory for a familiar object decreases depending on the time interval between the first trial run (training) and the second trial run (test). For example, if the first trial run is done and 3 hours later the second one is done, there is no difference in the searching times between novel object and known object for the APP-Tg mouse, compared with a healthy mouse. Thus, the APP-Tg mouse suffers from significant amnesia.
The APP-Tg mouse used herein was prepared by constructing an expression cassette linked to human APP751 isoform to which Swedish (K670N/M671L) and Indiana (V717F) mutation were introduced at downstream of mouse Thy-1 promoter, then injecting the expression cassette into a mouse fertilized egg, and transplanting it to a host mouse. The prepared mouse presents with intracerebral AB accumulation and cognitive dysfunction from early on, and thus the mouse can be used for the evaluation of cognitive function. APP-Tg mouse has been also reported in Non-patent literature 6.
To the prepared APP-Tg mouse, the test compound was administered, and then the first trial run was done for the mouse 30 minutes after the intraperitoneal administration or after 10 days of mixed diet administration. The second trial run was done 3 hours after the first trial run, and the searching times between novel object and known object in the second trial were evaluated. The discrimination index was calculated from the searching time for novel object and known object in the second trial run, and the improvement of cognitive function of the test compound was confirmed by comparing the discrimination index with the test compound-unadministered group as an index of the cognitive function. The discrimination index was calculated by the following formula.
Discrimination index={(Searching time for novel object)−(Searching time for known object)}/{(Searching time for novel object)+(Searching time for known object)}
The present test can be also done with a combination with Elacridar (Tokyo Chemical Industry Co., Ltd.). Elacridar can inhibit P-gp and BCRP which are excretion transporters expressed in the blood-brain barrier and thereby Elacridar has the effect of improving the transferability of the test compound to the brain. Eracridal was orally administered to APP-Tg mice at 100 mg/kg 2 hours before the first trial run, and then the test compound was intraperitoneally administered to the mice 30 minutes before the first trial run according to the above method. And, the improvement of cognitive function was evaluated. The significant difference from the vehicle-administered group was determined using the parametric Dunnett multiple comparison test.
And, the present test can be also done with a combination with ABT (1-aminobenzotriazole) (Tokyo Chemical Industry Co., Ltd.). ABT has the effect of improving the blood concentration of the test compound by inhibiting CYP and suppressing metabolism. The test compound and ABT (1 mg/g-food) were administered with food to APP-Tg mice for 10 days, and then the improvement of cognitive function was evaluated according to the above method. The significant difference from the vehicle-administered group was determined using the parametric Dunnett multiple comparison test.

[1] = tested on: phosphorylated tau oligomer; assay: Evaluation of phosphorylated tau oligomers in brain of APP-Tg mice, Western blotting (Test 4); type: in vivo, mouse; conditions: for Reducing effect of phosphorylated tau oligomer: 7-10 days, with ABT 1 mg/g-food; for reducing effect of tau oligomer: with food for 7-10 days, ABT 1 mg/g-food depending on the compound, brain, anti-oligomerized tau antibody TOMA-1
Experimental: Test 4: Evaluation of Phosphorylated Tau Oligomers Using APP-Tg Mice
This test is a test to quantify the oligomer of phosphorylated tau in the brain to evaluate the action of a compound. […] The APP-Tg mice used herein were prepared by the method described in Test 3.
The test compound administered with food to APP-Tg mice for 7-10 days. At this time, in order to increase the blood concentration of the test compound, ABT was used in combination with a mixed diet of 1 mg/g-food depending on the compound. After the administration, the brain was collected, and the protein is extracted from the collected brain using TBS (Tris Buffered Saline) or sarcosyl, and then SDS-PAGE (sodium dodecyl sulfate-polyacrylamide gel electrophoresis) of the soluble or insoluble fraction was performed. After that, Western blotting was performed using an anti-oligomerized tau antibody (Anti-Tau, oligomeric, clone TOMA-1), and the effect of the test compound was evaluated by quantifying the band amount of the phosphorylated tau oligomer.
The reducing effect of phosphorylated tau oligomer was calculated by the following formula, and from the calculated values, the results were defined as follows: 0-25%: +, 25-50%: ++, 50-75%: +++, and 75-100%: ++++. The significant difference from the vehicle-administered group was determined using the Student t-test. For the band amount, the value corrected by the β-actin band amount was used.
Reducing effect of phosphorylated tau oligomer={(band amount of oligomerized tau in vehicle-administered group−band amount of oligomerized tau in test compound-administered group)/band amount of oligomerized tau in vehicle-administered group}×100

human Nav1.1 = target: T1, human Nav1.1 (Homo sapiens, UniProt P35498); assay: Amplification of Nav1.1-derived voltage-gated sodium current (Nav1.1 current), automated patch clamp (Test 1); type: cell-based; conditions: read-out: Nav1.1 current amplification rate (%)
T1 construct: host or cells: HEK293
Method in brief: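 HEK293 cells stably expressing human Nav1.1, restricted to cells with >500 pA current, were recorded by automated voltage-clamp patch clamp with a ramp voltage stimulus. Compounds were applied in HEPES-buffered extracellular solution with 1% DMSO. Amplification (%) = 100×(peak or AUC after/before compound)−100.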

[2] = HEK293, Concentration for evaluation 1 μM, HEK293 cell line stably expressing human Nav1.1
[3] = HEK293, concentration for evaluation 1 μM, HEK293 stably expressing human Nav1.1

Structure (SMILES)	improvement of cognitive function (NORT), summary of the above results (APP-Tg mouse)	improvement of cognitive function (NORT) (APP-Tg mouse)	Discrimination index (APP-Tg mouse; dose 0.2 mg/g-food for 10 days)	Discrimination index (APP-Tg mouse; dose 2 mg/g-food for 10 days)	Reducing effect of phosphorylated tau oligomer ([1]; dose 0.2 mg/g-food)	Reducing effect of phosphorylated tau oligomer ([1]; dose 2 mg/g-food)	reducing effect of tau oligomer [1]	activation at 1 µM (human Nav1.1; [2])	activation at 1 µM (human Nav1.1; [3])	Discrimination index (APP-Tg mouse; dose 0.1 mg/g-food for 10 days)	Discrimination index (APP-Tg mouse; dose 4 mg/g-food for 10 days)	Reducing effect of phosphorylated tau oligomer ([1]; dose 0.1 mg/g-food)	Reducing effect of phosphorylated tau oligomer ([1]; dose 4 mg/g-food)
CN(c1cnc2cnn(CC(=O)Nc3ccn4ncnc4c3)c2n1)C1CC2(CC2)C1 [Example 630, 2-{6-[methyl(spiro[2.3]hexan-5-yl)amino]-1H-pyrazolo[3,4-b]pyrazin-1-yl}-N-([1,2,4]triazolo[1,5-a]pyridin-7-yl)acetamide]	some improvement of cognitive function	some improvement of cognitive function	0.04	0.45	++ (25-50%: ++)	++ (25-50%: ++)	some reducing effect of tau oligomer	120%					
CN(CC1CCC1)c1ncc2cnn(CC(=O)Nc3ccc4ncnn4c3)c2n1 [Example 819, 2-{6-[(cyclobutylmethyl)(methyl)amino]-1H-pyrazolo[3,4-d]pyrimidin-1-yl}-N-([1,2,4]triazolo[1,5-a]pyridin-6-yl)acetamide]	some improvement of cognitive function	some improvement of cognitive function; also recorded: strong improvement of cognitive function	0.47	0.52	++ (25-50%: ++)	+ (0-25%: +)	some reducing effect of tau oligomer		88%				
N#Cc1ccc(NC(=O)Cn2ncc3ncc(N4CCC5(CC5)C(F)(F)C4)nc32)cn1 [Example 746, N-(6-cyanopyridin-3-yl)-2-[6-(4,4-difluoro-6-azaspiro[2.5]octan-6-yl)-1H-pyrazolo[3,4-b]pyrazin-1-yl]acetamide]	some improvement of cognitive function	some improvement of cognitive function	0.28	0.38	++ (25-50%: ++)	++ (25-50%: ++)	some reducing effect of tau oligomer	102%					
CN(c1ncc2cnn(CC(=O)Nc3ccc4ncnn4c3)c2n1)C1CC(C)(C)C1 [Example 821, 2-{6-[(3,3-dimethylcyclobutyl)(methyl)amino]-1H-pyrazolo[3,4-d]pyrimidin-1-yl}-N-([1,2,4]triazolo[1,5-a]pyridin-6-yl)acetamide]	some improvement of cognitive function	some improvement of cognitive function; also recorded: strong improvement of cognitive function	0.30	0.37	+ (0-25%: +)	+ (0-25%: +)			116%				
CN(c1cnc2cnn(CC(=O)Nc3ccc(C#N)nc3)c2n1)C1CC2(CC2)C1 [Example 753, N-(6-cyanopyridin-3-yl)-2-{6-[methyl(spiro[2.3]hexan-5-yl)amino]-1H-pyrazolo[3,4-b]pyrazin-1-yl}acetamide]							some reducing effect of tau oligomer	106%		0.21	0.28	++ (25-50%: ++)	++ (25-50%: ++)
